This assay addresses T1, dPIP5K^L (Drosophila melanogaster, UniProt A0A6M3Q9L5).
T1 construct: gene PIP5K59B; full-length long isoform, 897 residues, about 100 kD; cDNA from fly retinae in pUAST-attB, transiently expressed in Drosophila S2R+ cells; lysate assayed
Description: in vitro lipid kinase assay, LC-MS/MS of product:substrate ratio. Type of assay: biochemical. As to conditions: S2R+ lysate 10 μg; 600 pmol PI4P with phosphatidylserine micelles; ATP (40 μM in 2x buffer), pH 7.4, 30 °C, 30 min.

T1 sequence (A0A6M3Q9L5 1-891): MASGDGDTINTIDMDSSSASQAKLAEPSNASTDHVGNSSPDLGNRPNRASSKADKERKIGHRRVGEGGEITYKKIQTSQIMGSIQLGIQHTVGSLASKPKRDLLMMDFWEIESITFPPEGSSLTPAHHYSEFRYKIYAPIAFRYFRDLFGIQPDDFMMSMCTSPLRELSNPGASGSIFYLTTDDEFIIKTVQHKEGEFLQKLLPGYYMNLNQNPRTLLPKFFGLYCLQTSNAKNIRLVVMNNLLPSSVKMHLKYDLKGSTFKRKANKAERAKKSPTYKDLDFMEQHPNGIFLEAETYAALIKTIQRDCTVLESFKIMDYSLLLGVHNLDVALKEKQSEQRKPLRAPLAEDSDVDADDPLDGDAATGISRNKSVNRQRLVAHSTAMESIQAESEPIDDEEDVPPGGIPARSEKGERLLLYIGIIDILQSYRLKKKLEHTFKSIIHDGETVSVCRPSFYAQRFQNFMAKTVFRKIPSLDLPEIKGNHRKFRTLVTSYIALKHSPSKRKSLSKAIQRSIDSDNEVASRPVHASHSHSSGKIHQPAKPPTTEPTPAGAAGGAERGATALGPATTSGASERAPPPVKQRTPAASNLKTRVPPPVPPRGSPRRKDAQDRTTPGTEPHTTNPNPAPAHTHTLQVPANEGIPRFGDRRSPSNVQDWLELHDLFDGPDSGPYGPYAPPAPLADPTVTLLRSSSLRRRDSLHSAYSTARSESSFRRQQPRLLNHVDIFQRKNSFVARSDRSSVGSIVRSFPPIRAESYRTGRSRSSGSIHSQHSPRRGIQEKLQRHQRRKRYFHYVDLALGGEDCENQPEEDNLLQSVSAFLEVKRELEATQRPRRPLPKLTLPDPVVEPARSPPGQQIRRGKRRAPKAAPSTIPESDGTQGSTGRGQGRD

Take `CCCCC/C=C\C/C=C\C/C=C\C/C=C\CCCC(=O)O[C@H](COC(=O)CCCCCCCCCCCCCCCC)COP(=O)(O)O[C@H]1[C@H](O)[C@@H](O)[C@H](OP(=O)(O)O)[C@@H](O)[C@H]1O` [37:4 PI4P]: the response ratio entry is recorded as “response ratio of dPIP5K^L transfected lysates was significantly higher”.

(Values after article PMC8921834, “Septins tune lipid kinase activity and PI(4,5)P2 turnover during G-protein–coupled PLC signalling in vivo” (Life Science Alliance, 2022).)
